Measured values published in PubChem BioAssay (NCI).
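Exposure lasted 48 hours, with cells grown in 96-well plates and compounds tested at five concentrations. GI50 marks 50% less growth. TGI is the concentration that stops growth completely.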

Key:
Assay in all cases: NCI tumour cell line growth inhibition, 48 h
786-0 renal = tested on: 786-0 renal
A498 renal = tested on: A498 renal
A549 NSCLC = tested on: A549 NSCLC
ACHN renal = tested on: ACHN renal
BT-549 breast = tested on: BT-549 breast
CAKI-1 renal = tested on: CAKI-1 renal
CCRF-CEM leukemia = tested on: CCRF-CEM leukemia
COLO 205 colon = tested on: COLO 205 colon
DU-145 prostate = tested on: DU-145 prostate
EKVX NSCLC = tested on: EKVX NSCLC
HCC-2998 colon = tested on: HCC-2998 colon
HCT-116 colon = tested on: HCT-116 colon
HCT-15 colon = tested on: HCT-15 colon
HL-60(TB) leukemia = tested on: HL-60(TB) leukemia
HOP-62 NSCLC = tested on: HOP-62 NSCLC
HOP-92 NSCLC = tested on: HOP-92 NSCLC
HS 578T breast = tested on: HS 578T breast
HT29 colon = tested on: HT29 colon
IGROV1 ovarian = tested on: IGROV1 ovarian
K-562 leukemia = tested on: K-562 leukemia
KM12 colon = tested on: KM12 colon
LOX IMVI melanoma = tested on: LOX IMVI melanoma
M14 melanoma = tested on: M14 melanoma
MALME-3M melanoma = tested on: MALME-3M melanoma
MCF7 breast = tested on: MCF7 breast
MDA-MB-231 breast = tested on: MDA-MB-231 breast
MDA-MB-435 = tested on: MDA-MB-435
MOLT-4 leukemia = tested on: MOLT-4 leukemia
NCI-H226 lung = tested on: NCI-H226 lung
NCI-H23 lung = tested on: NCI-H23 lung
NCI-H460 lung = tested on: NCI-H460 lung
NCI-H522 lung = tested on: NCI-H522 lung
NCI/ADR-RES ovarian = tested on: NCI/ADR-RES ovarian
OVCAR-3 ovarian = tested on: OVCAR-3 ovarian
OVCAR-4 ovarian = tested on: OVCAR-4 ovarian
OVCAR-5 ovarian = tested on: OVCAR-5 ovarian
OVCAR-8 ovarian = tested on: OVCAR-8 ovarian
PC-3 prostate = tested on: PC-3 prostate
RPMI-8226 leukemia = tested on: RPMI-8226 leukemia
RXF 393 renal = tested on: RXF 393 renal
SF-268 CNS = tested on: SF-268 CNS
SF-295 CNS = tested on: SF-295 CNS
SF-539 CNS = tested on: SF-539 CNS
SK-MEL-2 melanoma = tested on: SK-MEL-2 melanoma
SK-MEL-28 melanoma = tested on: SK-MEL-28 melanoma
SK-MEL-5 melanoma = tested on: SK-MEL-5 melanoma
SK-OV-3 ovarian = tested on: SK-OV-3 ovarian
SN12C renal = tested on: SN12C renal
SNB-19 CNS = tested on: SNB-19 CNS
SNB-75 CNS = tested on: SNB-75 CNS
SR leukemia = tested on: SR leukemia
SW-620 colon = tested on: SW-620 colon
T-47D breast = tested on: T-47D breast
TK-10 renal = tested on: TK-10 renal
U251 CNS = tested on: U251 CNS
UACC-257 melanoma = tested on: UACC-257 melanoma
UACC-62 melanoma = tested on: UACC-62 melanoma
UO-31 renal = tested on: UO-31 renal

Structure (SMILES): Cc1cc(-c2ccc(C3C(C#N)=C(N)Oc4c3c(=O)oc3ccccc43)cc2)cnc1F (stereo unspecified)
- GI50 (786-0 renal): 50.8 µM
- TGI (786-0 renal): > 100 µM
- GI50 (A498 renal): > 100 µM
- TGI (A498 renal): > 100 µM
- GI50 (A549 NSCLC): > 100 µM
- TGI (A549 NSCLC): > 100 µM
- GI50 (ACHN renal): 55.9 µM
- TGI (ACHN renal): > 100 µM
- GI50 (BT-549 breast): 23.9 µM
- TGI (BT-549 breast): > 100 µM
- GI50 (CAKI-1 renal): 41 µM
- TGI (CAKI-1 renal): > 100 µM
- GI50 (CCRF-CEM leukemia): 0.535 µM
- TGI (CCRF-CEM leukemia): > 100 µM
- GI50 (COLO 205 colon): > 100 µM
- TGI (COLO 205 colon): > 100 µM
- GI50 (DU-145 prostate): 49 µM
- TGI (DU-145 prostate): > 100 µM
- GI50 (EKVX NSCLC): 71.3 µM
- TGI (EKVX NSCLC): > 100 µM
- GI50 (HCC-2998 colon): 89 µM
- TGI (HCC-2998 colon): > 100 µM
- GI50 (HCT-116 colon): 29.4 µM
- TGI (HCT-116 colon): > 100 µM
- GI50 (HCT-15 colon): 42.3 µM
- TGI (HCT-15 colon): > 100 µM
- GI50 (HL-60(TB) leukemia): 43.4 µM
- TGI (HL-60(TB) leukemia): > 100 µM
- GI50 (HOP-62 NSCLC): 88.5 µM
- TGI (HOP-62 NSCLC): > 100 µM
- GI50 (HOP-92 NSCLC): 1.63 µM
- TGI (HOP-92 NSCLC): 74.1 µM
- GI50 (HS 578T breast): 67.8 µM
- TGI (HS 578T breast): > 100 µM
- GI50 (HT29 colon): 43.4 µM
- TGI (HT29 colon): > 100 µM
- GI50 (IGROV1 ovarian): > 100 µM
- TGI (IGROV1 ovarian): > 100 µM
- GI50 (K-562 leukemia): 35 µM
- TGI (K-562 leukemia): > 100 µM
- GI50 (KM12 colon): > 100 µM
- TGI (KM12 colon): > 100 µM
- GI50 (LOX IMVI melanoma): 44.4 µM
- TGI (LOX IMVI melanoma): > 100 µM
- GI50 (M14 melanoma): > 100 µM
- TGI (M14 melanoma): > 100 µM
- GI50 (MALME-3M melanoma): > 100 µM
- TGI (MALME-3M melanoma): > 100 µM
- GI50 (MCF7 breast): 48.9 µM
- TGI (MCF7 breast): > 100 µM
- GI50 (MDA-MB-231 breast): > 100 µM
- TGI (MDA-MB-231 breast): > 100 µM
- GI50 (MDA-MB-435): > 100 µM
- TGI (MDA-MB-435): > 100 µM
- GI50 (MOLT-4 leukemia): 27.8 µM
- TGI (MOLT-4 leukemia): > 100 µM
- GI50 (NCI-H226 lung): 34.2 µM
- TGI (NCI-H226 lung): > 100 µM
- GI50 (NCI-H23 lung): 38.7 µM
- TGI (NCI-H23 lung): > 100 µM
- GI50 (NCI-H460 lung): > 100 µM
- TGI (NCI-H460 lung): > 100 µM
- GI50 (NCI-H522 lung): 22.5 µM
- TGI (NCI-H522 lung): > 100 µM
- GI50 (NCI/ADR-RES ovarian): 68.7 µM
- TGI (NCI/ADR-RES ovarian): > 100 µM
- GI50 (OVCAR-3 ovarian): 33.9 µM
- TGI (OVCAR-3 ovarian): > 100 µM
- GI50 (OVCAR-4 ovarian): 39.3 µM
- TGI (OVCAR-4 ovarian): > 100 µM
- GI50 (OVCAR-5 ovarian): 85.9 µM
- TGI (OVCAR-5 ovarian): > 100 µM
- GI50 (OVCAR-8 ovarian): > 100 µM
- TGI (OVCAR-8 ovarian): > 100 µM
- GI50 (PC-3 prostate): 40.2 µM
- TGI (PC-3 prostate): > 100 µM
- GI50 (RPMI-8226 leukemia): 38.4 µM
- TGI (RPMI-8226 leukemia): > 100 µM
- GI50 (RXF 393 renal): 12.8 µM
- TGI (RXF 393 renal): 77.3 µM
- GI50 (SF-268 CNS): 64.9 µM
- TGI (SF-268 CNS): > 100 µM
- GI50 (SF-295 CNS): 88 µM
- TGI (SF-295 CNS): > 100 µM
- GI50 (SF-539 CNS): 46 µM
- TGI (SF-539 CNS): > 100 µM
- GI50 (SK-MEL-2 melanoma): 35.3 µM
- TGI (SK-MEL-2 melanoma): > 100 µM
- GI50 (SK-MEL-28 melanoma): > 100 µM
- TGI (SK-MEL-28 melanoma): > 100 µM
- GI50 (SK-MEL-5 melanoma): 81 µM
- TGI (SK-MEL-5 melanoma): > 100 µM
- GI50 (SK-OV-3 ovarian): 59.8 µM
- TGI (SK-OV-3 ovarian): > 100 µM
- GI50 (SN12C renal): 81.2 µM
- TGI (SN12C renal): > 100 µM
- GI50 (SNB-19 CNS): > 100 µM
- TGI (SNB-19 CNS): > 100 µM
- GI50 (SNB-75 CNS): 22.4 µM
- TGI (SNB-75 CNS): > 100 µM
- GI50 (SR leukemia): 33.6 µM
- TGI (SR leukemia): > 100 µM
- GI50 (SW-620 colon): 85.3 µM
- TGI (SW-620 colon): > 100 µM
- GI50 (T-47D breast): 29.5 µM
- TGI (T-47D breast): > 100 µM
- GI50 (TK-10 renal): 39.3 µM
- TGI (TK-10 renal): > 100 µM
- GI50 (U251 CNS): > 100 µM
- TGI (U251 CNS): > 100 µM
- GI50 (UACC-257 melanoma): > 100 µM
- TGI (UACC-257 melanoma): > 100 µM
- GI50 (UACC-62 melanoma): 43.8 µM
- TGI (UACC-62 melanoma): > 100 µM
- GI50 (UO-31 renal): 26.9 µM
- TGI (UO-31 renal): > 100 µM
